{"source": "patent US8293779B2", "about": "“Mazindol combination in the treatment of attention deficit/hyperactivity” (Assistance Publique-Hopitaux de Paris, priority 2006, dated 2012)", "origin": "cited, not measured here", "key": {"[1]": {"settings": "unlike amphetamine molecules"}, "[2]": {"settings": "animal toxicology studies"}, "[3]": {"settings": "after single or repeated oral administration"}}, "note": "Like-named read-outs stand apart in the source and are kept apart here.", "data": [{"smiles": "OC1(c2ccc(Cl)cc2)c2ccccc2C2=NCCN21", "note": "(centres unmarked) [mazindol, 5-(4-chlorophenyl)-2,5-dihydro-3H-imadazo[2,1-a]isoindol-5-ol]", "values": [{"measurement": "cardiovascular modifications or stereotypes", "setting": "[1]", "value": "does not cause cardiovascular modifications or stereotypes"}, {"measurement": "carcinogenic effect", "setting": "[2]", "value": "no carcinogenic effect"}, {"measurement": "mutagenic effect", "setting": "[2]", "value": "no mutagenic effect"}, {"measurement": "toxic potential", "setting": "[2]", "value": "very low"}, {"measurement": "toxicology effect in reproduction", "setting": "[2]", "value": "no toxicology effect in reproduction"}, {"measurement": "part of the dose still plasmatically effective", "setting": "24 hours after taking", "value": 75, "unit": "%"}, {"measurement": "plasmatic half-life time", "setting": "[3]", "value": "33 to 55", "unit": "h"}, {"measurement": "tmax", "setting": "[3]", "value": "2 to 4", "unit": "h"}, {"measurement": "pharmacokinetics dose dependence", "setting": "doses of between 1 mg/day and 4 mg/day", "value": "linear (independent of the dose)"}, {"measurement": "plasmatic half-life time", "setting": "general statement", "value": "greater than one day"}, {"measurement": "excretion in faeces (fraction)", "setting": "in vivo", "value": "¼"}, {"measurement": "delay of absorption by taking food concomitantly", "setting": "oral, with food", "value": "approximately 1 hour"}, {"measurement": "effect of food on total quantity absorbed", "setting": "oral, with food", "value": "does not modify the total quantity absorbed"}, {"measurement": "excretion in urine (fraction)", "setting": "principal metabolism urinary", "value": "¾"}]}]}
